Columns and labels:
5-HT2A [1] = target: T1, 5-HT2A (Homo sapiens, UniProt P28223); test: Serotonin 5-HT2A in vitro cellular IPOne agonism assay (HTRF); assay type: cell-based; set-up: host or cells: CHO-K1; settings: CHO-K1 cells, 60 min
Description: (§1) Serotonin 5-HT2AIn Vitro Cellular IPOne Agonism Assay. The 5-HT2AIPOne HTRF assay was performed at Epics Therapeutics S. A. (Belgium, FAST-0505I) using conventional methods. Briefly, CHO—K1 cells expressing human recombinant 5-HT2A receptor grown to mid-log phase in culture media without antibiotics were detached with PBS-EDTA, centrifuged, and resuspended in medium without antibiotics buffer. 20,000 cells were distributed in a 96 well plate and incubated overnight at 37° C. with 5% Co2.
For agonist testing, the medium was removed and 20 μl of assay buffer plus 20 μl of test compound or reference agonist were added in each well. The plate was incubated for 60 min. at 37° C. with 5% CO2.
(§2) After addition of the lysis buffer containing IP1-d2 and anti-IP1 cryptate detection reagents, plates were incubated 1-hour at room temperature, and fluorescence ratios were measured according to the manufacturer specification, with the HTRF kit.

5-HT2A [2] = target: T1, 5-HT2A; test: Serotonin 5-HT2A in vitro cellular IPOne antagonism assay (HTRF); assay type: cell-based; set-up: host or cells: CHO-K1; settings: CHO-K1 cells, reference agonist a-Me-5HT
Description: as §1, with “Antagonism” for “Agonism”, “FAST-0505I) in antagonism mode” for “FAST-0505I)”
For antagonist testing, a reference agonist a-Me-5HT was added and fluorescence signal monitored for several minutes, followed by addition of 20 μl of assay buffer plus 20 μl of test compound or reference antagonist ketanserin, in each well. The plate was incubated for 60 min. at 37° C. with 5% CO2.
as §2

5-HT2A [3] = target: T1, 5-HT2A; test: Serotonin 5-HT2A in vitro radioligand binding competition assay ([3H]-DOI); set-up: purchased Epics Therapeutics S. A. (Belgium), contract assay FAST-0505B; host or cells: membrane extracts; settings: [3H]-DOI competition, membrane extracts; read-out: 5HT2A R[…] ACTIVITY
Description: Serotonin 5-HT2AIn Vitro Radioligand Binding Competition Assay. The 5-HT2A radioligand binding competition assay was performed at Epics Therapeutics S. A. (Belgium, FAST-0505B) using conventional methods. Briefly, competition binding is performed in duplicate in the wells of a 96 well plate (Master Block, Greiner, 786201) containing binding buffer (optimized for each receptor), membrane extracts (amount of protein/well optimized for each receptor), radiotracer [3H]-DOI (final concentration optimized for each receptor) and test compound. Nonspecific binding was determined by co-incubation with 200-fold excess of cold competitor. The samples were incubated in a final volume of 0.1 ml at a temperature and for a duration optimized for each receptor and then filtered over filter plates. Filters were washed six times with 0.5 ml of ice-cold washing buffer (optimized for each receptor) and 50 µl of Microscint 20 (Packard) were added in each well. The plates were incubated 15 min on an orbital shaker and then counted with a TopCount™ for 1 min/well.

rat cortical neurons = test: Neurite outgrowth in primary neuronal cultures assay; assay type: cell-based; set-up: key: A: Statistically significant mean increase as a percent of DMSO control at 10 μM or less; B: No statistically significant mean increase as a percent of DMSO control at 10 μM or less; settings: 72h, vs DMSO control, 10 μM or less
Excerpt: Neurite Outgrowth Assay. Neurite Outgrowth in Primary Neuronal Cultures Assay. Changes in the pattern of neurite outgrowth have been implicated in psychiatric and neurodegenerative disorders as well as traumatic injuries. The discovery of new compounds that can positively affect neuritogenesis are important for developing new therapeutics for neurological diseases. Measurement of neurite outgrowth of rat cortical neurons using an automated image-based assay was used to determine the neuroplastic effects of the compounds of the present disclosure. The neurite outgrowth assay was performed at Neurofit SAS (France) as described below.
Pregnant Wistar rats (Janvier; France) were used for the study. They were delivered 6 days before their use. Upon arrival at Neurofit animal facility, they were housed one per cage and maintained in a room with controlled temperature (21-22° C.) and a reversed light-dark cycle (12 h/12h; lights on: 17:30-05:30; lights off: 05:30-17:30) with food and water available ad libitum.
Female Wistar rats of 17 days gestation were killed by cervical dislocation and the fetuses were removed from the uterus. Their brains were placed in ice-cold medium of Leibovitz (L15, Gibco, Fisher bioblock, France). Cortices were dissected and meninges were carefully removed. The cortical neurons were dissociated by trypsinization for 30 min at 37° C. (trypsin-EDTA, Gibco) in presence of 0.1 mg/ml DNAse I (Roche, France). The reaction was stopped by addition of Dulbecco's Modified Eagle Medium (DMEM; Gibco) with 10% of fetal bovine serum (FBS; Gibco). The suspension was triturated with a 10-ml pipette and using a needle syringe 21G and centrifuged at 350×g for 10 min at room temperature. The pellet of dissociated cells was resuspended in a medium consisting of Neurobasal (Gibco) supplemented with 2% B27 supplement (Gibco), 0.5 mM L-Glutamine (Gibco), an antibiotic-antimicotic mixture. Viable cells were counted in a Neubauer cytometer using the trypan blue exclusion test (Sigma). Cells were seeded at a density of 10000 cells per well in 96-well plate (Costar) precoated with poly-L-lysine. Test compound at different concentrations were added to the cultures. Donepezil (positive control) was tested at 250 nM.
After 72h (3 days) of plating, cultures were fixed with paraformaldehyde in PBS (4%, Sigma) for 30 min at 4° C. Then, cells were successively permeabilized with 0.1% Triton X100 for 30 min, saturated with PBS containing 3% of BSA and were incubated 1 h with anti-beta III tubulin antibody (Sigma) at 1/10 000 in PBS containing 0.5% of BSA. Cells were washed three times with PBS containing 0.5% of BSA, and they were incubated 1 h with goat anti-mouse antibody coupled with AF488 (Invitrogen A11001) diluted at 1/1000 in PBS containing 0.5% of BSA. Finally, nuclei were staining with DAPI 1 mg/ml at 1/1000 in PBS containing 0.5% of BSA. After rinsing with PBS, the plate was filmed and neurite networks were examined and analyzed using High-Content Screening (CellInsight, Thermo Scientific). The average number of neurites per neuron and the average total length of neurites per neuron were the main parameters analyzed. Analysis of data was performed using analysis of variance (ANOVA). The Fisher's Protected Least Significant Difference test was used for multiple comparisons. A p value ≤0.05 was considered significant. The software used is StatView 5.0 from SAS Institut.

T1 sequence (P28223 whole entry): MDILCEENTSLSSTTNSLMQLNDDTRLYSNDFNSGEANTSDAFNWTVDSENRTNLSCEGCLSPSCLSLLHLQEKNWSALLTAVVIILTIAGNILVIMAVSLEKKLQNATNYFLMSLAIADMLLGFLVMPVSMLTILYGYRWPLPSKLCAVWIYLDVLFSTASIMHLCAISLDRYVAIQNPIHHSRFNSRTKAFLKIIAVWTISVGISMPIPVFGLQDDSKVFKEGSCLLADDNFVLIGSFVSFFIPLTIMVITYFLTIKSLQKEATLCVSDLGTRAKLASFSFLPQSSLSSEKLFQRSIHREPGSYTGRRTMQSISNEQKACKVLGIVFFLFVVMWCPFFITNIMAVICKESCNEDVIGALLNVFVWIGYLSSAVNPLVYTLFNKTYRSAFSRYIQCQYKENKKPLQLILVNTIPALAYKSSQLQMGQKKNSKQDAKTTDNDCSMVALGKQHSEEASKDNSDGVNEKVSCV

SMILES	EC50 (5-HT2A [1]) [µM]	IC50 (5-HT2A [2]) [µM]	IC50 (5-HT2A [3]) [µM]	INCREASE IN NEURITE BRANCHING (rat cortical neurons)	INCREASE IN NEURITE LENGTH (rat cortical neurons)	INCREASE IN NEURITE NUMBER (rat cortical neurons)
COc1ccc2c3c([nH]c2c1)C[C@H]1CCCN1CC3 [Compound 18, (R)-9-methoxy-1,2,3,5,6,11,12,12a-octahydropyrrolo[1′,2′:1,2]azepino[4,5-b]indole]	> 10	0.101 to 1	> 10	A	A	A
FC(F)(F)c1cccc2[nH]c3c(c12)CC1CCCN1CC3 (centres unmarked) [Compound 28, 11-(trifluoromethyl)-1,2,3,5,6,7,12,12a-octahydropyrrolo[1′,2′:1,7]azepino[4,5-b]indole]	1 to 10	0.01 to 0.1	0.101 to 1	A	A	A
COc1cccc2[nH]c3c(c12)C[C@H]1CCCN1CC3 [Compound 26, (R)-11-methoxy-1,2,3,5,6,7,12,12a-octahydropyrrolo[1′,2′:1,7]azepino[4,5-b]indole]	0.01 to 0.1	< 0.01	0.101 to 1	A	A	A
c1ccc2c3c([nH]c2c1)CCN1CCCC1C3 (centres unmarked) [Compound 7, 1,2,3,5,6,7,12,12a-octahydropyrrolo[1′,2′:1,7]azepino[4,5-b]indole]	1 to 10	0.101 to 1	0.101 to 1	A	A	A
COc1ccc2c3c([nH]c2c1)CC1CCCN1CC3 (centres unmarked) [Compound 2, 9-methoxy-1,2,3,5,6,11,12,12a-octahydropyrrolo[1′,2′:1,2]azepino[4,5-b]indole]	> 10		> 10	A	A	B
FC(F)(F)c1cccc2[nH]c3c(c12)CCN1CCCC1C3 (centres unmarked) [Compound 21, 7-(trifluoromethyl)-1,2,3,5,6,11,12,12a-octahydropyrrolo[1′,2′:1,2]azepino[4,5-b]indole]	> 10	0.101 to 1	1 to 10	A	A	B
c1ccc2c3c([nH]c2c1)CCN1CCC[C@H]1C3 [Compound 23, (S)-1,2,3,5,6,7,12,12a-octahydropyrrolo[1′,2′:1,7]azepino[4,5-b]indole]	> 10	0.01 to 0.1	0.101 to 1	A	A	A
c1ccc2c3c([nH]c2c1)C[C@@H]1CCCN1CC3 [Compound 19, (S)-1,2,3,5,6,11,12,12a-octahydropyrrolo[1′,2′:1,2]azepino[4,5-b]indole]	0.101 to 1	0.101 to 1	0.101 to 1	A	A	A
FC(F)(F)c1ccc2c3c([nH]c2c1)CC1CCCN1CC3 (centres unmarked) [Compound 12, 9-(trifluoromethyl)-1,2,3,5,6,11,12,12a-octahydropyrrolo[1′,2′:1,2]azepino[4,5-b]indole]	> 10		1 to 10	A	A	B
COc1cccc2[nH]c3c(c12)CC1CCCN1CC3 (centres unmarked) [Compound 5, 11-methoxy-1,2,3,5,6,7,12,12a-octahydropyrrolo[1′,2′:1,7]azepino[4,5-b]indole]	1 to 10		1 to 10	B	A	B
COc1ccc2c3c([nH]c2c1)CCN1CCCC1C3 (centres unmarked) [Compound 1, 9-methoxy-1,2,3,5,6,7,12,12a-octahydropyrrolo[1′,2′:1,7]azepino[4,5-b]indole]	> 10		1 to 10	B	B	B

Reference: patent US20260176253A1 (priority 2021, published 2026)
